Results from US20160361255A1, “Peptide Nanotubes for Slow Release of Drugs at Peripheral Nerve Injury” (The University of Toledo, priority 2015, published 2016).

Assays:
[1] = system: differentiated dopaminergic PC12 cells; experiment: LIVE/DEAD viability of differentiated PC12 cells exposed to 6-OHDA; assay type: cell-based; details: 1 μM for 6 h, then 30 μM 6-OHDA for 24 h
Experimental: Differentiated dopaminergic PC12 cells and primary mouse embryonic cortical neurons (E17, DIV14) were treated with mock (H2O) or 1 μM of dextran, alginate, HA-GAGR or midi-GAGR for 6 h and insulated by oxidative stressors (30 μM 6-OHDA [PC12] and 10 μM amyloid β peptide [cortical neurons]) for 24 h. The viability of neurons was assessed using LIVE/DEAD Viability/Cytotoxicity Assay Kit (Invitrogen).

phosphorylated CREB [2] = experiment: Nuclear phospho-CREB immunostaining in PC12 cells; assay type: cell-based; details: 1 μM, 24 h
Experimental: (§1) Differentiated PC12 cells and mouse embryonic cortical neurons (E17, DIV14) were treated with mock, dextran, alginate, HA-GAGR or midi-GAGR (1 μM) for 24 h and fixed in 3.7% paraformaldehyde. The fixed cells and neurons were immunostained with antibodies against α-tubulin and phospho-CREB (p-CREB) along with DAPI (nucleus).

phosphorylated CREB [3] = experiment: Nuclear phospho-CREB immunostaining in cortical neurons; assay type: cell-based, mouse; details: 1 μM, 24 h
Experimental: as §1

[4] = ABTS Antioxidant Assay Kit; assay type: biochemical; details: 10 μM
Experimental: The antioxidant capacity of midi-GAGR was measured using ABTS Antioxidant Assay Kit (Zenbio Co.). […] This was slightly stronger than antioxidant capacity of LA-GAGR (10 μM LA-GAGR=15.4 μM Trolox) (Table 2)

[5] = even at high doses (~200 mg/kg); cited from earlier work
[6] = cited from earlier work
[7] = system: rat embryonic cortical neurons; experiment: Scholl ring analysis of cortical neurons exposed to 4-HNE; assay type: cell-based; details: pretreatment 2 days, then 25 μM 4-HNE 1 day
Experimental: Rat embryonic cortical neurons were treated with mock (FIG. 11C), 1 μM HA-GAGR (high acyl gellan gum), 1 μM dextran, 100 μM ascorbate or 1 μM midi-GAGR (FIG. 11D) for 2 days and then with 25 μM 4-hydroxynonenal (4-HNE), a lipid peroxide, for 1 day. After fixation, neurons were immunostained with anti-synaptophysin antibody (green) and rhodamine-phalloidin (actin: red). Scholl ring analysis was performed. Neurons pre-treated with mock, dextran or ascorbate lost neuritis (neuritic atrophy) in the presence of 4-HNE.

Row | Substance | 6-OHDA-induced cell death [1] | increase of nuclear p-CREB levels (phosphorylated CREB [2]) | increase of nuclear p-CREB levels (phosphorylated CREB [3]) | antioxidant capacity [4] [μM Trolox] | side effects in humans [5] | oral bioavailability [6] | neurites (neuritic atrophy) in the presence of 4-HNE [7]
1 | alginate | did not | not significantly increased | not significantly increased | – | – | – | –
2 | low acyl gellan gum [LA-GAGR] | – | – | – | 15.4 | few side effects | good | –
3 | high acyl gellan gum [HA-GAGR] | – | not significantly increased | not significantly increased | – | – | – | formed neuritis, but less branched
4 | dextran | did not | not significantly increased | not significantly increased | – | – | – | lost neuritis
